Patent publication EP2077092A2, “System and Methods for Screening or Analyzing Targets” (Taipei Veterans General Hospital, priority 2007, dated 2009)

How the values were obtained:
Assay type in all cases: cell-based, Sprague-Dawley (SD) rats
Bcl-2 = experiment: Real-time RT-PCR of Bcl-2 mRNA in IM-treated NSCs
Procedure: (§1) All animals used were treated in accordance with the Animal Care and Use Committee guideline at Taipei Veterans General Hospital. The protocol of the present study was also approved by the committee. Adult Sprague-Dawley (SD) rats (8 weeks old, 250 g) were anesthetized with intraperitoneal phenobarbital (Sigma, USA), and the location of their brains was mapped. Then, the brain […]. In brief, tissues from the hippocampus of adult rats were dissociated and incubated in Hank's balanced salt solution (HBSS) containing collagenase (78 units/ml) and hyaluronidase (38 units/ml) for 10 minutes at 37°C. The tissues were then mechanically dissected and placed in a trypsin solution (1.33 mg/ml) at 37°C for another 10 minutes. Dissociated cells were then centrifuged at 150 GG for 5 minutes. […] Viable cells were counted by trypan blue exclusion and plated as 5000 cells/200 µL per well in 96-well plates (Coming Inc, Acton, MA, USA) with no substrate pretreatment. […]
(§2) For real-time RT-PCR, the total RNA was extracted using the RNAeasy kit (Qiagen, Valencia, CA, USA). […] The quantification in the unknown samples was performed with LightCycler Relative Quantification Software version 3.3 (Roche Molecular Systems, Alameda, CA, USA). […]

NSCs [1] = experiment: Immunofluorescent assay of serotonin (5-HT)-positive cells in differentiating NSCs; settings: Day 7 culture of IM-treated NSCs vs non IM-treated NSCs, p<0.05
caspase 8 = experiment: Caspase 8 activity ELISA in LPS-treated NSCs; settings: LPS (100 ng/ml) exposure, Day 7, vs LPS-treated NSCs without treatment, p<0.05
MAP2 = experiment: Real-time RT-PCR of MAP2 mRNA in IM-treated NSCs; settings: Days 5 and Day 7 IM-treated NSCs vs non IM-treated NSCs, p<0.05
Procedure: as §1, §2

caspase 3 = experiment: Caspase 3 activity ELISA in LPS-treated NSCs; settings: LPS (100 ng/ml) exposure, Day 7, vs LPS-treated NSCs without treatment, p<0.05
Bax = experiment: Real-time RT-PCR of Bax mRNA in IM-treated NSCs; settings: Day 3, Day 5, and Day 7 of IM-treated NSCs
Procedure: as §1, §2

NSCs [2] = experiment: MTT cell viability assay of IM-treated NSCs; settings: 3 µM IM, Day 3, Day 5 and Day 7 cultures, p<0.05
Procedure: as §1, with “37°C.” for “37°C. The tissues were then mechanically dissected and placed in a trypsin solution (1.33 mg/ml) at 37°C for another 10 minutes. Dissociated cells were then centrifuged at 150 GG for 5 minutes.”
IM was purchased from Sigma Chem. Co., St Louis, MO, USA. […] The amount of MTT fromazon product was determined using a microplate reader and the absorbance was measured at 560 nm (SpectraMax 250, Molecular Devices, Sunnyvale, CA, USA). […] The activities of caspases 8 and 3 (Medical and Biological Laboratories Co., Ltd., Nagoya, Japan), and the concentration of IL-6, IL-1 and TNF-α (Pharmingen, San Diego, CA, USA) were determined by ELISA kits and quantified by reading at 490 nm (MRX; Dynatech Laboratories, Chantilly, VA, USA). Each individual sample was analyzed in triplicate.

For CN(C)CCCN1c2ccccc2CCc2ccccc21 [IM, imipramine], the “levels of Bcl-2 mRNA” value (Bcl-2; 1, 3, and 5 µM IM, Day 7, vs Day 7 non-IM-treated NSCs) was “significantly increased”, the “mRNA levels of Bcl-2” value (Bcl-2; Days 5 and Day 7 IM-treated NSCs vs non IM-treated NSCs, p<0.05) was “significantly increased” and the “percentages of serotonin (5-HT)-positive cells” value (NSCs [1]) was “significantly increased”. For the same compound, the “apoptotic activities of caspase 8” value (caspase 8) was “significantly decreased”, the “mRNA levels of MAP2” value (MAP2) was “significantly increased” and the “apoptotic activities of caspase 3” value (caspase 3) was “significantly decreased”. The “expression of Bax” value (Bax) was “not activated” and the “cell survival (MTT assay)” value (NSCs [2]) was “significantly increased”.
